Data taken from PubChem BioAssay AID330 (DTP/NCI, 2004).
Several values for one entry are separate records, joined by “and”; a condition that tells them apart may be missing. Equal values may be shown once. Inconclusive results and toxic doses are left out. Rule for the calls: active = survival T/C of 150% or more; inactive = T/C below 125% in these data.

Test system: P388 leukemia ip, CD2F1 mice, survival T/C
Assay: NCI In Vivo Anticancer Drug Screen. Data for tumor model P388 Leukemia (intraperitoneal) in CD2F1 (CDF1) mice
Settings: endpoint: median survival time, higher = longer survival
Summary of the method: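 Mice carrying the transplanted tumor received test compound or vehicle. Survival was recorded in each group, and the value is the treated-group measurement divided by that of the vehicle-treated control group.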

[1] = dose: 25.0 mg/kg/injection, schedule: Q01DX009 (ip), vehicle: saline with Tween-80
[2] = dose: 50.0 mg/kg/injection, schedule: Q01DX009 (ip), vehicle: saline with Tween-80
[3] = dose: 50.0 mg/kg/injection, schedule: Q01DX005 (ip), vehicle: saline with Tween-80
[4] = dose: 100.0 mg/kg/injection, schedule: Q01DX005 (ip), vehicle: saline with Tween-80
[5] = dose: 100.0 mg/kg/injection, schedule: Q04DX003 (ip), vehicle: saline with Tween-80
[6] = dose: 100.0 mg/kg/injection, schedule: Q01DX009 (ip), vehicle: saline
[7] = dose: 200.0 mg/kg/injection, schedule: Q01DX009 (ip), vehicle: saline
[8] = dose: 50.0 mg/kg/injection, schedule: Q01DX009 (ip), vehicle: Klucel (hydroxypropylcellulose) (HPC)
[9] = dose: 100.0 mg/kg/injection, schedule: Q01DX009 (ip), vehicle: Klucel (hydroxypropylcellulose) (HPC)
[10] = dose: 200.0 mg/kg/injection, schedule: Q01DX009 (ip), vehicle: Klucel (hydroxypropylcellulose) (HPC)
[11] = dose: 100.0 mg/kg/injection, schedule: Q01DX009 (ip), vehicle: saline with Tween-80
[12] = dose: 200.0 mg/kg/injection, schedule: Q01DX009 (ip), vehicle: saline with Tween-80
[13] = dose: 50.0 mg/kg/injection, schedule: Q01DX005 (ip), vehicle: Klucel (hydroxypropylcellulose) (HPC)
[14] = dose: 100.0 mg/kg/injection, schedule: Q01DX005 (ip), vehicle: Klucel (hydroxypropylcellulose) (HPC)

Measured: T/C

COC(=O)C(F)C(Br)C(=O)OC (stereo not drawn)
inactive: dose: 12.5 mg/kg/injection, schedule: Q01DX009 (ip), vehicle: saline with Tween-80 111 % of control and 103 % of control | [1] 112 % of control and 105 % of control | [2] 123 % of control and 114 % of control and 115 % of control

CCCCOC(=O)NC(=O)c1cc2cc(Cl)cc(Cl)c2oc1=O
inactive: [3] 90 % of control | [4] 91 % of control

CC(C)(CO)NCC(O)CS(=O)(=O)O (stereo not drawn)
inactive: dose: 60.0 mg/kg/injection, schedule: Q01DX005 (ip), vehicle: saline 100 % of control | dose: 120.0 mg/kg/injection, schedule: Q01DX005 (ip), vehicle: saline 100 % of control | dose: 240.0 mg/kg/injection, schedule: Q01DX005 (ip), vehicle: saline 101 % of control

CS(=O)(=O)/C=C/C([N+](=O)[O-])[N+](=O)[O-]
inactive: dose: 100.0 mg/kg/injection, schedule: Q04DX003 (ip), vehicle: saline 109 % of control | dose: 200.0 mg/kg/injection, schedule: Q04DX003 (ip), vehicle: saline 104 % of control | dose: 400.0 mg/kg/injection, schedule: Q04DX003 (ip), vehicle: saline 92 % of control

Cc1cc2c(cc1C)C(O)(C#Cc1ccccc1)c1c(C)ccc(C)c1C2=O (stereo not drawn)
inactive: [5] 100 % of control | dose: 200.0 mg/kg/injection, schedule: Q04DX003 (ip), vehicle: saline with Tween-80 100 % of control | dose: 400.0 mg/kg/injection, schedule: Q04DX003 (ip), vehicle: saline with Tween-80 97 % of control

O=C(NS(=O)(=O)Cl)Oc1ccc(Cl)cc1C(=O)Oc1ccc(Cl)cc1
inactive: dose: 60.0 mg/kg/injection, schedule: Q01DX005 (ip), vehicle: Klucel (hydroxypropylcellulose) (HPC) 90 % of control | dose: 120.0 mg/kg/injection, schedule: Q01DX005 (ip), vehicle: Klucel (hydroxypropylcellulose) (HPC) 93 % of control | dose: 240.0 mg/kg/injection, schedule: Q01DX005 (ip), vehicle: Klucel (hydroxypropylcellulose) (HPC) 86 % of control

O=C1c2ccccc2-c2cccc3ccnc1c23
inactive: dose: 8.0 mg/kg/injection, schedule: Q01DX009 (ip), vehicle: Klucel (hydroxypropylcellulose) (HPC) 103 % of control | dose: 16.0 mg/kg/injection, schedule: Q01DX009 (ip), vehicle: Klucel (hydroxypropylcellulose) (HPC) 101 % of control | dose: 32.0 mg/kg/injection, schedule: Q01DX009 (ip), vehicle: Klucel (hydroxypropylcellulose) (HPC) 103 % of control | dose: 64.0 mg/kg/injection, schedule: Q01DX009 (ip), vehicle: Klucel (hydroxypropylcellulose) (HPC) 100 % of control

Oc1cncc2ncccc12
inactive: dose: 50.0 mg/kg/injection, schedule: Q01DX009 (ip), vehicle: saline 106 % of control | [6] 100 % of control | [7] 100 % of control

CCCCCCC(=O)/C=C/c1cc(Cl)cc(Cl)c1O
inactive: [8] 105 % of control | [9] 91 % of control | [10] 101 % of control

O=C1/C(=C/c2ccccc2)Cc2ccccc21
inactive: [11] 100 % of control | [12] 100 % of control | dose: 400.0 mg/kg/injection, schedule: Q01DX009 (ip), vehicle: saline with Tween-80 95 % of control

CCCCCCSC(=O)Nc1ccc(C)c(NC(=O)SCCCCCC)c1
inactive: [2] 100 % of control | [11] 100 % of control | [12] 100 % of control

O=C1OCC2CC3C4C=CC(C4)C3C12 (stereo not drawn)
inactive: [13] 103 % of control | [14] 93 % of control

CCC(C)N(CC)CCNc1cc(OC)cc2cccnc12 (stereo not drawn)
inactive: dose: 50.0 mg/kg/injection, schedule: Q01DX005 (ip), vehicle: saline 103 % of control | dose: 100.0 mg/kg/injection, schedule: Q01DX005 (ip), vehicle: saline 99 % of control

C/C(=C/c1cc(Br)c(O)c(Br)c1)[N+](=O)[O-]
inactive: dose: 6.25 mg/kg/injection, schedule: Q01DX009 (ip), vehicle: saline 100 % of control | dose: 12.5 mg/kg/injection, schedule: Q01DX009 (ip), vehicle: saline 110 % of control and 90 % of control | dose: 12.5 mg/kg/injection, schedule: Q04DX003 (ip), vehicle: saline 106 % of control | dose: 25.0 mg/kg/injection, schedule: Q01DX009 (ip), vehicle: saline 109 % of control and 90 % of control | dose: 25.0 mg/kg/injection, schedule: Q04DX003 (ip), vehicle: saline 100 % of control | dose: 50.0 mg/kg/injection, schedule: Q04DX003 (ip), vehicle: saline 100 % of control | [6] 90 % of control | [5] 98 % of control

C#CCOc1ccc(C(F)(F)F)cc1
inactive: [1] 105 % of control | [2] 118 % of control | [11] 119 % of control

Cc1ccccc1N(C=O)c1ccccc1C
inactive: [6] 106 % of control | [7] 93 % of control | dose: 400.0 mg/kg/injection, schedule: Q01DX009 (ip), vehicle: saline 98 % of control

CN(C)c1ccc(/C=C/c2ccc3c(c2)OCO3)cc1
inactive: [8] 98 % of control | [9] 95 % of control | [10] 98 % of control

CC1(C)NC(=O)N(CCCCCCN2C(=O)NC(C)(C)C2=O)C1=O
inactive: [13] 94 % of control | [14] 102 % of control | dose: 400.0 mg/kg/injection, schedule: Q01DX005 (ip), vehicle: Klucel (hydroxypropylcellulose) (HPC) 90 % of control

CC1CN(c2ccc(Cl)cc2)CCOC(=O)O1 (stereo not drawn)
inactive: dose: 100.0 mg/kg/injection, schedule: Q01DX001 (ip), vehicle: saline with Tween-80 92 % of control | dose: 200.0 mg/kg/injection, schedule: Q01DX001 (ip), vehicle: saline with Tween-80 95 % of control | dose: 400.0 mg/kg/injection, schedule: Q01DX001 (ip), vehicle: saline with Tween-80 92 % of control

O=C1CN(Cc2ccccc2)CC(=O)N2Cc3ccccc3CN12
inactive: dose: 12.5 mg/kg/injection, schedule: Q01DX005 (ip), vehicle: saline with Tween-80 98 % of control | dose: 25.0 mg/kg/injection, schedule: Q01DX005 (ip), vehicle: saline with Tween-80 105 % of control | [3] 102 % of control

N#CC1CCCC(Cc2ccccc2)(c2ccccc2)C1=O (stereo not drawn)
inactive: dose: 100.0 mg/kg/injection, schedule: Q01DX001 (ip), vehicle: Klucel (hydroxypropylcellulose) (HPC) 101 % of control | dose: 200.0 mg/kg/injection, schedule: Q01DX001 (ip), vehicle: Klucel (hydroxypropylcellulose) (HPC) 102 % of control | dose: 400.0 mg/kg/injection, schedule: Q01DX001 (ip), vehicle: Klucel (hydroxypropylcellulose) (HPC) 100 % of control

Cc1cc(N(CCCl)CCCl)ccc1N=Nc1cccc2ccccc12
inactive: [2] 105 % of control | [11] 115 % of control | [12] 123 % of control

O=C1NC(c2cccc3ccccc23)Nc2ccc(Cl)cc21 (stereo not drawn)
inactive: dose: 12.5 mg/kg/injection, schedule: Q01DX009 (ip), vehicle: Klucel (hydroxypropylcellulose) (HPC) 113 % of control | dose: 25.0 mg/kg/injection, schedule: Q01DX009 (ip), vehicle: Klucel (hydroxypropylcellulose) (HPC) 123 % of control | [8] 123 % of control

CCOP(=O)(O)OCC.[Sc]
inactive: dose: 100.0 mg/kg/injection, schedule: Q04DX002 (ip), vehicle: saline with Tween-80 93 % of control | dose: 200.0 mg/kg/injection, schedule: Q04DX002 (ip), vehicle: saline with Tween-80 101 % of control | dose: 400.0 mg/kg/injection, schedule: Q04DX002 (ip), vehicle: saline with Tween-80 104 % of control

O=C1CCC(=O)Nc2ccc3nc4ccccc4c(c3c2)SCCCCCCCCCCCCSc2c3ccccc3nc3ccc(cc23)N1
inactive: [3] 110 % of control | [4] 97 % of control | dose: 200.0 mg/kg/injection, schedule: Q01DX005 (ip), vehicle: saline with Tween-80 107 % of control
